PMC10974272, “Cytotoxic and Antiproliferative Activity of LASSBio-2208 and the Attempts to Determine Its Drug Metabolism and Pharmacokinetics In Vitro Profile” (Pharmaceuticals, 2024)
Converted amounts (≈) assume the structure as drawn.

Assays:
[1] = Non-specific microsome protein binding; type: in vitro ADME; details: for fraction unbound at 60 min, 8.3 µM: rat, pH 7.4, liver microsomes 0.5 mg protein/mL, 37 °C, read-out: Percentage of ƒu(mic) (unbound fraction in nonspecific microsomal binding)
Protocol: Once such bonds are formed, the bound fraction would become incapable of being metabolized.
Liver microsomes were diluted with PBS pH 7.4 to a concentration of 0.5 mg protein/mL and 3 µL at 1 mM of the working test compound and solutions were mixed with 357 µL of liver microsome suspension. After mixing, duplicate 200 µL aliquots were immediately removed, while another microtubule acted as the control sample (T 0 h), and were quenched with 400 µL of cold acetonitrile containing analytical internal standards. The other samples were incubated at 37 °C at 100 rpm, for 60 min with the same subsequent treatment.

PC-3 = experiment: SRB cell viability/antiproliferative assay, PC-3; details: for Emax: SRB 48 h, PC-3, maximum effect at maximum concentration used
MCF-7 = experiment: SRB cell viability/antiproliferative assay, MCF-7; details: Homo sapiens, MCF7, 48 h; for Emax: SRB 48 h, MCF-7, maximum effect at maximum concentration used
CCRF-CEM = experiment: SRB cell viability/antiproliferative assay, CCRF-CEM; details: Homo sapiens, 48 h
PI3Kα = details: cited from earlier work
PI3Kβ = details: cited from earlier work
PI3Kδ = details: cited from earlier work
PI3Kγ = details: cited from earlier work
mTOR = details: cited from earlier work
[2] = parameters: method as in PMID 32022441; details: cited from earlier work
[3] = parameters: method as in PMID 32022441; details: cited from earlier work; remark: listed apart in the source
[4] = test system: PC3 prostate carcinoma cell line; parameters: method as in PMID 33919077; details: cited from earlier work
[5] = test system: PC3 prostate carcinoma cell line; parameters: method as in PMID 33919077; details: PC3, flow cytometry, 24 h assay; cited from earlier work

With `CN(C)c1ccc(C(=O)N/N=C/c2ccc(C(=O)NO)cc2)cc1` [LASSBio-1911] the fraction unbound at 60 min, 8.3 µM [1] was 0.004, the CC50 (PC-3; Homo sapiens, PC-3, 48 h) was > 100 µM and the Emax (PC-3; Homo sapiens, PC-3, 48 h) was < 35%. For the same compound, the Emax (PC-3) was 34.04%, the CC50 (MCF-7) was 39.1 µM and the Emax (MCF-7) was > 80%. It also gave a CC50 (CCRF-CEM) of 25.2 µM and an Emax (CCRF-CEM) of 69.2%.
For `O=C(NO)c1ccc(/C=N/NC(=O)c2cc(N3CCOCC3)nc(-c3cccc(O)c3)n2)cc1` [LASSBio-2208], the “unbound in nonspecific microsomal binding” value ([1]; liver microsomes) is given as “more than 93%”, the fraction unbound at 60 min, 8.3 µM [1] is given as 0.937 and the IC50 (PI3Kα) is given as 0.0463 µM. For the same compound, the IC50 (PI3Kβ) was 0.0728 µM, the IC50 (PI3Kδ) was 0.0724 µM and the IC50 (PI3Kγ) was 1.3 µM. The IC50 (mTOR) was 0.464 µM, the “aqueous solubility (thermodynamic solubility)” value [2] was 1.81 µM (≈ 0.837 µg/mL) and the “calculated logP” value [3] was 1.96. The “reduction of cell viability” value ([4]; PC3, MTT 24 h, highest concentration studied (5 µM)) was ~50%, the “effect on cell viability” value ([4]; PC3, MTT 48 h, 0.01–5 µM) was “no effect on cell viability” and the cell cycle effect [5] was “cell cycle arrest in the G2/M phase”. For the same compound, the “initial cell apoptosis, share of cell population” value [5] was 60–66%, the CC50 (PC-3; Homo sapiens, PC-3, 48 h) was 98.9 µM and the Emax (PC-3; Homo sapiens, PC-3, 48 h) was > 50%. The CC50 (MCF-7) was 5.44 µM, the Emax (MCF-7) was 67.4% and the CC50 (CCRF-CEM) was > 100 µM.
